According to ChEMBL document CHEMBL5678804 (Cancer Cell, 2011):
Calls of active or inactive are those of the source. No cut-off for these calls is given here.

How the values were obtained:
[1] = target: Protein kinase C beta type (Homo sapiens, UniProt P05771); experiment: Inhibition of human wild type PKCbeta1 using 3xChocktide-PKC(19to 31) as substrate preincubated for 2 hrs followed by ATP addition and measured every 2 mins for […] by spectrophotometric analysis
[2] = target: Mitogen-activated protein kinase 1 (Homo sapiens, UniProt P28482); experiment: Inhibition of human wild type ERK2 using RBER-CHKtide as substrate preincubated for 2 hrs followed by ATP addition and measured every 2 mins for […] by spectrophotometric analysis
[3] = target: Glycogen synthase kinase-3 alpha (Homo sapiens, UniProt P49840); experiment: Inhibition of human wild type GSK3 alpha using SUPT5 754to 837 as substrate preincubated for 2 hrs followed by ATP addition and measured every 2 mins for […] by spectrophotometric analysis
[4] = target: Mitogen-activated protein kinase 9 (Homo sapiens, UniProt P45984); experiment: Inhibition of human wild type JNK2alpha2 using ATF2 as substrate preincubated for 2 hrs followed by ATP addition and measured every 2 mins for […] by spectrophotometric analysis
[5] = target: STE20-like serine/threonine-protein kinase (Homo sapiens, UniProt Q9H2G2); experiment: Inhibition of human wild type SLK using RB-S6P as substrate preincubated for 2 hrs followed by ATP addition and measured every 2 mins for […] by spectrophotometric analysis
[6] = target: Serine/threonine-protein kinase 17A (Homo sapiens, UniProt Q9UEE5); experiment: Inhibition of human wild type DRAK1 using RB-CTF as substrate preincubated for 2 hrs followed by ATP addition and measured every 2 mins for […] by spectrophotometric analysis
[7] = target: Serine/threonine-protein kinase NLK (Homo sapiens, UniProt Q9UBE8); experiment: Inhibition of human wild type NLK using RBER-GSK3([…]-[…]) as substrate preincubated for 2 hrs followed by ATP addition and measured every 2 mins for […] by spectrophotometric analysis
CDK3/Cyclin E = CDK3/Cyclin E (Homo sapiens, UniProt Q00526); experiment: Inhibition of human wild type CDK3/cyclinE using RBER-CHKtide as substrate preincubated for 2 hrs followed by ATP addition and measured every 2 mins for […] by spectrophotometric analysis; format: protein-complex assay
[8] = target: Fibroblast growth factor receptor 3 (Homo sapiens, UniProt P22607); experiment: Inhibition of human wild type FGFR3 using PolyEY as substrate preincubated for 2 hrs followed by ATP addition and measured every 2 mins for […] by spectrophotometric analysis
[9] = target: Mitogen-activated protein kinase kinase kinase 14 (Homo sapiens, UniProt Q99558); experiment: Inhibition of human wild type NIK using RBER-CHKtide as substrate preincubated for 2 hrs followed by ATP addition and measured every 2 mins for […] by spectrophotometric analysis
[10] = target: Ribosomal protein S6 kinase alpha-4 (Homo sapiens, UniProt O75676); experiment: Inhibition of human wild type MSK2 using RBER-CHKtide as substrate preincubated for 2 hrs followed by ATP addition and measured every 2 mins for […] by spectrophotometric analysis
[11] = target: Tyrosine-protein kinase Fes/Fps (Homo sapiens, UniProt P07332); experiment: Inhibition of human wild type FES using PolyEY as substrate preincubated for 2 hrs followed by ATP addition and measured every 2 mins for […] by spectrophotometric analysis
[12] = target: Vascular endothelial growth factor receptor 3 (Homo sapiens, UniProt P35916); experiment: Inhibition of human wild type FLT4 using PolyEY as substrate preincubated for 2 hrs followed by ATP addition and measured every 2 mins for […] by spectrophotometric analysis
[13] = target: Dual specificity tyrosine-phosphorylation-regulated kinase 3 (Homo sapiens, UniProt O43781); experiment: Inhibition of human wild type DYRK3 using RBER-IRStide as substrate preincubated for 2 hrs followed by ATP addition and measured every 2 mins for […] by spectrophotometric analysis
Focal adhesion kinase 1 = Focal adhesion kinase 1 (Homo sapiens, UniProt Q05397); experiment: Inhibition of human wild type FAK using PolyEY as substrate preincubated for 2 hrs followed by ATP addition and measured every 2 mins for […] by spectrophotometric analysis
[14] = target: Mitogen-activated protein kinase kinase kinase 20 (Homo sapiens, UniProt Q9NYL2); experiment: Inhibition of human wild type ZAK using MBP as substrate preincubated for 2 hrs followed by ATP addition and measured every 2 mins for […] by spectrophotometric analysis
[15] = Inhibition of human wild type CDK2/A using RBER-CHKtide as substrate preincubated for 2 hrs followed by ATP addition and measured every 2 mins for […] by spectrophotometric analysis
BaF3 = experiment: Antileukemic activity against mouse BaF3 cells harbouring BCR-ABL1 T315I mutant transduced with 5-FU treated bone marrow xenografted in Balb/c mouse assessed as improvement in circulating leukocyte count at 100 mg/kg, po administered once daily measured upto 56 days; format: functional, organism-based; conditions: time <= 56.0 day
Misshapen-like kinase 1 = Misshapen-like kinase 1 (Homo sapiens, UniProt Q8N4C8); experiment: Inhibition of human wild type MINK using RBER-CHKtide as substrate preincubated for 2 hrs followed by ATP addition and measured every 2 mins for […] by spectrophotometric analysis
[16] = target: Mitogen-activated protein kinase 3 (Homo sapiens, UniProt P27361); experiment: Inhibition of human wild type ERK1 using RBER-CHKtide as substrate preincubated for 2 hrs followed by ATP addition and measured every 2 mins for […] by spectrophotometric analysis
[17] = target: Cyclin-dependent kinase 1 (Homo sapiens, UniProt P06493); experiment: Inhibition of human wild type CDK1 using PolyEY as substrate preincubated for 2 hrs followed by ATP addition and measured every 2 mins for […] by spectrophotometric analysis
[18] = target: Inhibitor of nuclear factor kappa-B kinase subunit alpha (Homo sapiens, UniProt O15111); experiment: Inhibition of human wild type IKK alpha using RBER-CHKtide as substrate preincubated for 2 hrs followed by ATP addition and measured every 2 mins for […] by spectrophotometric analysis
[19] = target: Proto-oncogene tyrosine-protein kinase ROS (Homo sapiens, UniProt P08922); experiment: Inhibition of human wild type ROS using Poly(Ala,Glu,Lys,Tyr)6:2:5:1 as substrate preincubated for 2 hrs followed by ATP addition and measured every 2 mins for […] by spectrophotometric analysis
[20] = target: Serine/threonine-protein kinase 25 (Homo sapiens, UniProt O00506); experiment: Inhibition of human wild type STK25 using Casein as substrate preincubated for 2 hrs followed by ATP addition and measured every 2 mins for […] by spectrophotometric analysis
[21] = target: Mitogen-activated protein kinase 10 (Homo sapiens, UniProt P53779); experiment: Inhibition of human wild type JNK3 using ATF2 as substrate preincubated for 2 hrs followed by ATP addition and measured every 2 mins for […] by spectrophotometric analysis
[22] = target: cGMP-dependent protein kinase 1 (Homo sapiens, UniProt Q13976); experiment: Inhibition of human wild type PKG1 alpha using 3xChocktide-PKC(19to 31) as substrate preincubated for 2 hrs followed by ATP addition and measured every 2 mins for […] by spectrophotometric analysis
[23] = target: Serine/threonine-protein kinase N1 (Homo sapiens, UniProt Q16512); experiment: Inhibition of human wild type PKN1 using RBER-CHKtide as substrate preincubated for 2 hrs followed by ATP addition and measured every 2 mins for […] by spectrophotometric analysis
[24] = target: Fibroblast growth factor receptor 4 (Homo sapiens, UniProt P22455); experiment: Inhibition of human wild type FGFR4 using PolyEY as substrate preincubated for 2 hrs followed by ATP addition and measured every 2 mins for […] by spectrophotometric analysis

Chain of STE20-like serine/threonine-protein kinase (Q9H2G2 whole entry): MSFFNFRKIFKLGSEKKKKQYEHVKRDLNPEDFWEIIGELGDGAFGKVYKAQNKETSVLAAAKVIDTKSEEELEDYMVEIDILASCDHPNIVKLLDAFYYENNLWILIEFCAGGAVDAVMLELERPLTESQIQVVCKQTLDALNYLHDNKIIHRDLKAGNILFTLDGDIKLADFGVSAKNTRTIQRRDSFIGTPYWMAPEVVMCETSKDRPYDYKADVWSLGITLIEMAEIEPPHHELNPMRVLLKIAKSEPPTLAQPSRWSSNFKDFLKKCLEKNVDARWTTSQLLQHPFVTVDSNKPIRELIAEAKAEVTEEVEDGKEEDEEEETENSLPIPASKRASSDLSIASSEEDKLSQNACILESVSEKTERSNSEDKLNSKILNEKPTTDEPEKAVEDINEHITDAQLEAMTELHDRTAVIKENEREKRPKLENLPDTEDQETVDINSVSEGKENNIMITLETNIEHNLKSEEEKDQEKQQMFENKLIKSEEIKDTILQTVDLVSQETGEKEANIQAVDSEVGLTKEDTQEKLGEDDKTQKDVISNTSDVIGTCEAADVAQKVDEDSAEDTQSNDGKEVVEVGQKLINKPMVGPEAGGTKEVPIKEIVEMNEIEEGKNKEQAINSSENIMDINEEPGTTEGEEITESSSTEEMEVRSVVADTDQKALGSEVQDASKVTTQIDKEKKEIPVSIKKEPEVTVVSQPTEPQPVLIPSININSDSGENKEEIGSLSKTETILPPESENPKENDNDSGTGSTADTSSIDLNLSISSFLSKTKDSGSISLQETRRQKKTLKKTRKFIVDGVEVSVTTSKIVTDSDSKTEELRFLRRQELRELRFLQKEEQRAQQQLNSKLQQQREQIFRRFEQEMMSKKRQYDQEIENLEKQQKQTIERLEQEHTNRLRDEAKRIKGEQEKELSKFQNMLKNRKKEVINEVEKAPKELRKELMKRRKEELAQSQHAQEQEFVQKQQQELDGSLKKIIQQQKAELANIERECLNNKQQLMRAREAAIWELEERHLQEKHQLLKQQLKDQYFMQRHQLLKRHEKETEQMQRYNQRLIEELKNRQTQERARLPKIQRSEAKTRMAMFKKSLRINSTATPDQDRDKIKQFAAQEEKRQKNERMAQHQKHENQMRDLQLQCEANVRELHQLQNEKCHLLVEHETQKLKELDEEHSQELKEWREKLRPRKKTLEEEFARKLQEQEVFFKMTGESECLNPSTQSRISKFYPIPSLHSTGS
Chain of Glycogen synthase kinase-3 alpha (P49840 whole entry): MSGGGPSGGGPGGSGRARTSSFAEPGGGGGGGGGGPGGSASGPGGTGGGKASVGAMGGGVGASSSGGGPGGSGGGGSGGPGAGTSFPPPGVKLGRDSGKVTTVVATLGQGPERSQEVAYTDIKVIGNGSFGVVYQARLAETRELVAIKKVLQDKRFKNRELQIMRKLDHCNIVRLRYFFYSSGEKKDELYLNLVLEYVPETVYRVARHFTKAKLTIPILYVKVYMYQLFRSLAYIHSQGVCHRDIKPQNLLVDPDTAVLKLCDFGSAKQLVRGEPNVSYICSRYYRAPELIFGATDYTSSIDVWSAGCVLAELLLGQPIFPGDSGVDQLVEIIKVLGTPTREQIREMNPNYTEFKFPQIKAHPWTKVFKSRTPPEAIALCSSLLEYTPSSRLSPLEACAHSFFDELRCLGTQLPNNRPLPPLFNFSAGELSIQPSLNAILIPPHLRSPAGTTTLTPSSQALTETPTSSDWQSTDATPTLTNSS
Chain of Cyclin-dependent kinase 1 (P06493 whole entry): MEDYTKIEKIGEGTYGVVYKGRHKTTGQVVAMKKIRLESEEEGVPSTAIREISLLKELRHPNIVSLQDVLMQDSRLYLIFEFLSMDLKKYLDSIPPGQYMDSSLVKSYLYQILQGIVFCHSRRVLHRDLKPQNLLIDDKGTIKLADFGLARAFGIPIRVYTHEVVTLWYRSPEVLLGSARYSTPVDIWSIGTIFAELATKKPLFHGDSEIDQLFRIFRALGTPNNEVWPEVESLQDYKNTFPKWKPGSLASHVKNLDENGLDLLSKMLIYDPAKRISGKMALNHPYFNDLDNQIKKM
Chain of Mitogen-activated protein kinase 10 (P53779 whole entry): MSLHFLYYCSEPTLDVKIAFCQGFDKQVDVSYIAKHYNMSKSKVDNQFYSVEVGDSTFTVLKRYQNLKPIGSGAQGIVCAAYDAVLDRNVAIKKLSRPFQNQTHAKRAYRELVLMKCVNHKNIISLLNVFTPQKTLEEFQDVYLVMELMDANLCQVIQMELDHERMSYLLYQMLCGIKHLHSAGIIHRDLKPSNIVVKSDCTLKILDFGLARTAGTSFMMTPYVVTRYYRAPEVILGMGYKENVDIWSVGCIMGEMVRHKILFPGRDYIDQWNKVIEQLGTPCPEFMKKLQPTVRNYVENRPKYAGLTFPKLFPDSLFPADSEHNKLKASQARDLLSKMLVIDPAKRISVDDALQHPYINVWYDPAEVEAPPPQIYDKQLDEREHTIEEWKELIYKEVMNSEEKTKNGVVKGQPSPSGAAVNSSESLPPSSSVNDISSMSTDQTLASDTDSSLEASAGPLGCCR
Chain of Serine/threonine-protein kinase N1 (Q16512 whole entry): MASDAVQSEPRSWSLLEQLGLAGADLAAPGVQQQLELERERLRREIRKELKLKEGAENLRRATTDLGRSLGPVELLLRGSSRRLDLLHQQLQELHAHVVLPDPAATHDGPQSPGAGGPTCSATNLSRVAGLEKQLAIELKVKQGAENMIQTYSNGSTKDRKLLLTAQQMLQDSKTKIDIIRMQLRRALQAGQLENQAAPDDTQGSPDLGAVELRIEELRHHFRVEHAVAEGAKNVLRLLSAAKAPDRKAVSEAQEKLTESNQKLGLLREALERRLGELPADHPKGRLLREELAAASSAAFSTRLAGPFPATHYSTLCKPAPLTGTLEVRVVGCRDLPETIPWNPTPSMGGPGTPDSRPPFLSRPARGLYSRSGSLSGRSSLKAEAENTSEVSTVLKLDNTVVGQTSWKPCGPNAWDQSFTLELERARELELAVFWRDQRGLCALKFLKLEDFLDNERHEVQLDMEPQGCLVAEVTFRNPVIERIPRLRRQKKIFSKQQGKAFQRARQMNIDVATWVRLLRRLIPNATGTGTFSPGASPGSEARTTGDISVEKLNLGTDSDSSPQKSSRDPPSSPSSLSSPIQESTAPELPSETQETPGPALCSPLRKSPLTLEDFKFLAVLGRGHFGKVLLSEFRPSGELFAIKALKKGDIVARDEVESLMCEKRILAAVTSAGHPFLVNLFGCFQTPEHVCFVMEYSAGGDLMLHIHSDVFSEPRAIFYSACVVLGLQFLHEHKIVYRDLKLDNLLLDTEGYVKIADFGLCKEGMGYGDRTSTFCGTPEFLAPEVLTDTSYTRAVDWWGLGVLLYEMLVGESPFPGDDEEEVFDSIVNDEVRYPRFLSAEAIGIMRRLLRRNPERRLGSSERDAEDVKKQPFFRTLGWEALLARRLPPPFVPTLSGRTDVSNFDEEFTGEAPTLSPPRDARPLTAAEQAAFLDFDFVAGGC
Chain of Inhibitor of nuclear factor kappa-B kinase subunit alpha (O15111 whole entry): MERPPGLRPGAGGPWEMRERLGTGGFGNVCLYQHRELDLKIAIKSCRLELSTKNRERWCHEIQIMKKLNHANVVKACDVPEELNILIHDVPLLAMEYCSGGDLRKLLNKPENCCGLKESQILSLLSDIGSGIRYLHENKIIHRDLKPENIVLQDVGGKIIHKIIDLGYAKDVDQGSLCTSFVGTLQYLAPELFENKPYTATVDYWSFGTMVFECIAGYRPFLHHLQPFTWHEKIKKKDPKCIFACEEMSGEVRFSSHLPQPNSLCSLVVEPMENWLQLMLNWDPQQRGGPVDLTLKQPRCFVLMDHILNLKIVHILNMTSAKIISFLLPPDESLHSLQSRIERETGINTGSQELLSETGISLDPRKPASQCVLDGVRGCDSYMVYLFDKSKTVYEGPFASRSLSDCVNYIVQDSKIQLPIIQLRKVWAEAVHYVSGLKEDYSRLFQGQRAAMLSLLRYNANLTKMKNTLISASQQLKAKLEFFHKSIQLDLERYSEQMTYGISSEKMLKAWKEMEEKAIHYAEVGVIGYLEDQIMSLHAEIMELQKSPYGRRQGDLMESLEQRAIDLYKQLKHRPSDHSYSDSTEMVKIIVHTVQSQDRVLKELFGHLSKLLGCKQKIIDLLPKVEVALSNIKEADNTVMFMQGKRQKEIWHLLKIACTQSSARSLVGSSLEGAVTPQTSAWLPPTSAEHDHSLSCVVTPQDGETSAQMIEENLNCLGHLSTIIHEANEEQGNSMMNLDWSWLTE
Chain of Fibroblast growth factor receptor 3 (P22607 whole entry): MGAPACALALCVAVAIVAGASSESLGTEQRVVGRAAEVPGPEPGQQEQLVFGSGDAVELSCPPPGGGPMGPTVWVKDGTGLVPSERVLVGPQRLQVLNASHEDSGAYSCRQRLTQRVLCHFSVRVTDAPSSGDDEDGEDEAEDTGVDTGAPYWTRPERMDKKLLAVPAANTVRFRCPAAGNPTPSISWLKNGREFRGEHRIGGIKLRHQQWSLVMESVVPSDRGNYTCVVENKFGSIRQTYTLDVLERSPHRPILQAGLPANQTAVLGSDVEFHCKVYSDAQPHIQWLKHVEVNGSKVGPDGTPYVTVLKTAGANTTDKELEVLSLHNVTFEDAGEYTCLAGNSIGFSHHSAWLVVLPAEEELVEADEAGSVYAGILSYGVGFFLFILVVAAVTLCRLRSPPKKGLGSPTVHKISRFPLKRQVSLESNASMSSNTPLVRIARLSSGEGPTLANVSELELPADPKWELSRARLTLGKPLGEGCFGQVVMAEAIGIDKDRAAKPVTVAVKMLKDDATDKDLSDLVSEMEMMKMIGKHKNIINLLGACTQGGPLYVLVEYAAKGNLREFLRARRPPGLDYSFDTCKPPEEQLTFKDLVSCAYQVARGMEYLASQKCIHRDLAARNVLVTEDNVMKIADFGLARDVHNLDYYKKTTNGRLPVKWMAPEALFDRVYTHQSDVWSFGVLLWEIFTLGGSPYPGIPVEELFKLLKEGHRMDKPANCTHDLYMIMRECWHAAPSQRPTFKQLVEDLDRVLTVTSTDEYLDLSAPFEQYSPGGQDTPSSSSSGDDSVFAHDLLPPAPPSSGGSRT

## CNC(=O)c1cc(Oc2ccc(NC(=O)Nc3cc(C(C)(C)C)nn3-c3ccc4ncccc4c3)c(F)c2)ccn1 [REBASTINIB]
[1]
  IC50: > 1000 nM
[2]
  IC50: > 1000 nM
[3]
  IC50: > 1000 nM
[4]
  IC50: 240 nM
[5]
  IC50: 670 nM
[6]
  IC50: > 1000 nM
[7]
  IC50: > 1000 nM
CDK3/Cyclin E
  IC50: > 1000 nM
[8]
  IC50: 10 nM
[9]
  IC50: > 1000 nM
[10]
  IC50: > 1000 nM
[11]
  IC50: 160 nM
[12]
  IC50: 240 nM
[13]
  IC50: 710 nM
Focal adhesion kinase 1
  IC50: 250 nM
[14]
  IC50: 90 nM
[15]
  IC50: > 1000 nM
BaF3
  Activity: Active
Misshapen-like kinase 1
  IC50: 11 nM
[16]
  IC50: > 1000 nM
[17]
  IC50: 290 nM
[18]
  IC50: > 1000 nM
[19]
  IC50: 340 nM
[20]
  IC50: > 1000 nM
[21]
  IC50: > 1000 nM
[22]
  IC50: > 1000 nM
[23]
  IC50: > 1000 nM
[24]
  IC50: 170 nM
